From the NIST ThermoML archive (doi:10.1021/je0340248)
± gives the expanded uncertainty stated by the source.

Test: xn = mol fraction of the nth substance listed
Settings: 101 kPa, Liquid

CC(O)CO (centres undefined) [1,2-propanediol] + COC(C)=O
Settings | mass density, 298.15 K [kg/m3] | mass density, 303.15 K [kg/m3] | mass density, 308.15 K [kg/m3] | mass density, 313.15 K [kg/m3] | speed of sound, 298.15 K [m/s] | speed of sound, 308.15 K [m/s] | viscosity, 298.15 K [mPa·s] | viscosity, 308.15 K [mPa·s]
x2 = 0.0465 | 1027.72 ± 0.34 | 1023.69 ± 0.35 | 1020.09 ± 0.36 | 1015.96 ± 0.37 | 1472 ± 2 | 1434 ± 2 | 34.29 ± 0.48 | 19.21 ± 0.37
x2 = 0.1493 | 1016.8 ± 0.39 | 1012.28 ± 0.4 | 1008.63 ± 0.41 | 1004.03 ± 0.42 | 1429 ± 2 | 1391 ± 2 | 20.44 ± 0.32 | 11.62 ± 0.21
x2 = 0.251 | 1006.23 ± 0.44 | 1001.34 ± 0.45 | 997.58 ± 0.46 | 992.61 ± 0.47 | 1388 ± 2 | 1350 ± 2 | 12.35 ± 0.2 | 7.189 ± 0.13
x2 = 0.3512 | 995.96 ± 0.48 | 990.75 ± 0.49 | 986.86 ± 0.5 | 981.59 ± 0.52 | 1350 ± 2 | 1313 ± 2 | 7.576 ± 0.12 | 4.553 ± 0.086
x2 = 0.4412 | 986.79 ± 0.52 | 981.3 ± 0.54 | 977.29 ± 0.55 | 971.76 ± 0.56 | 1318 ± 2 | 1281 ± 2 | 4.915 ± 0.083 | 3.063 ± 0.058
x2 = 0.4906 | 981.76 ± 0.54 | 976.11 ± 0.56 | 972.05 ± 0.57 | 966.37 ± 0.59 | 1301 ± 2 | 1264 ± 2 | 3.887 ± 0.065 | 2.478 ± 0.047
x2 = 0.5499 | 975.7 ± 0.57 | 969.85 ± 0.59 | 965.73 ± 0.6 | 959.87 ± 0.62 | 1281 ± 2 | 1244 ± 2 | 2.939 ± 0.05 | 1.932 ± 0.035
x2 = 0.6483 | 965.55 ± 0.61 | 959.34 ± 0.63 | 955.15 ± 0.64 | 949 ± 0.66 | 1249 ± 2 | 1211 ± 2 | 1.859 ± 0.032 | 1.294 ± 0.023
x2 = 0.7483 | 955.01 ± 0.66 | 948.45 ± 0.68 | 944.2 ± 0.69 | 937.77 ± 0.71 | 1218 ± 2 | 1178 ± 2 | 1.176 ± 0.021 | 0.875 ± 0.016
x2 = 0.8499 | 943.97 ± 0.7 | 937.1 ± 0.72 | 932.79 ± 0.74 | 926.1 ± 0.76 | 1189 ± 2 | 1147 ± 2 | 0.744 ± 0.013 | 0.598 ± 0.011
x2 = 0.9447 | 933.26 ± 0.75 | 926.21 ± 0.77 | 921.8 ± 0.78 | 914.96 ± 0.8 | 1164 ± 2 | 1119 ± 2 | 0.489 ± 0.009 | 0.425 ± 0.008

CC(=O)OCCC(C)C [3-methylbutyl ethanoate] + CC(O)CO
Settings | mass density, 298.15 K [kg/m3] | mass density, 303.15 K [kg/m3] | mass density, 308.15 K [kg/m3] | mass density, 313.15 K [kg/m3] | speed of sound, 298.15 K [m/s] | speed of sound, 308.15 K [m/s] | viscosity, 298.15 K [mPa·s] | viscosity, 308.15 K [mPa·s]
x1 = 0.0455 | 1017.21 ± 0.37 | 1013.29 ± 0.38 | 1009.48 ± 0.39 | 1005.69 ± 0.4 | 1460 ± 2 | 1425 ± 2 | 31.61 ± 0.43 | 18.4 ± 0.34
x1 = 0.1457 | 988 ± 0.47 | 983.78 ± 0.48 | 979.64 ± 0.49 | 976.02 ± 0.5 | 1398 ± 2 | 1369 ± 2 | 16.42 ± 0.26 | 10.43 ± 0.16
x1 = 0.2483 | 963.53 ± 0.56 | 959.11 ± 0.58 | 954.73 ± 0.59 | 951.27 ± 0.6 | 1346 ± 2 | 1320 ± 2 | 8.962 ± 0.14 | 6.168 ± 0.095
x1 = 0.3508 | 943.13 ± 0.64 | 938.57 ± 0.66 | 934.01 ± 0.67 | 930.68 ± 0.68 | 1304 ± 2 | 1281 ± 2 | 5.224 ± 0.084 | 3.864 ± 0.06
x1 = 0.452 | 926.02 ± 0.71 | 921.33 ± 0.73 | 916.63 ± 0.74 | 913.4 ± 0.75 | 1270 ± 2 | 1248 ± 2 | 3.269 ± 0.052 | 2.574 ± 0.041
x1 = 0.4959 | 919.36 ± 0.74 | 914.62 ± 0.75 | 909.86 ± 0.77 | 906.68 ± 0.78 | 1258 ± 2 | 1235 ± 2 | 2.721 ± 0.043 | 2.196 ± 0.035
x1 = 0.5551 | 911.01 ± 0.77 | 906.21 ± 0.79 | 901.38 ± 0.8 | 898.24 ± 0.81 | 1243 ± 2 | 1220 ± 2 | 2.165 ± 0.034 | 1.802 ± 0.029
x1 = 0.6523 | 898.71 ± 0.82 | 893.81 ± 0.84 | 888.88 ± 0.86 | 885.8 ± 0.87 | 1223 ± 2 | 1199 ± 2 | 1.56 ± 0.025 | 1.357 ± 0.022
x1 = 0.7497 | 887.92 ± 0.87 | 882.93 ± 0.89 | 877.91 ± 0.9 | 874.87 ± 0.91 | 1211 ± 2 | 1182 ± 2 | 1.191 ± 0.02 | 1.075 ± 0.018
x1 = 0.8495 | 878.28 ± 0.91 | 873.2 ± 0.93 | 868.1 ± 0.95 | 865.12 ± 0.95 | 1202 ± 2 | 1169 ± 2 | 0.961 ± 0.016 | 0.893 ± 0.015
x1 = 0.9426 | 870.47 ± 0.95 | 865.34 ± 0.96 | 860.17 ± 0.98 | 857.24 ± 0.99 | 1197 ± 2 | 1160 ± 2 | 0.831 ± 0.014 | 0.788 ± 0.014

OCCOCCO [diethylene glycol] + CCOC(C)=O
Settings | mass density, 298.15 K [kg/m3] | mass density, 303.15 K [kg/m3] | mass density, 308.15 K [kg/m3] | mass density, 313.15 K [kg/m3] | speed of sound, 298.15 K [m/s] | speed of sound, 308.15 K [m/s] | viscosity, 298.15 K [mPa·s] | viscosity, 308.15 K [mPa·s]
x2 = 0.0441 | 1103.89 ± 0.31 | 1100.06 ± 0.3 | 1096.4 ± 0.3 | 1092.83 ± 0.29 | 1557 ± 2 | 1527 ± 2 | 26.54 ± 0.38 | 14.6 ± 0.29
x2 = 0.1491 | 1081.32 ± 0.32 | 1077.52 ± 0.32 | 1073.43 ± 0.32 | 1069.24 ± 0.32 | 1501 ± 2 | 1467 ± 2 | 19.33 ± 0.29 | 10.14 ± 0.21
x2 = 0.2504 | 1059.83 ± 0.35 | 1055.84 ± 0.35 | 1051.57 ± 0.36 | 1047.06 ± 0.36 | 1444 ± 2 | 1410 ± 2 | 13.79 ± 0.22 | 7.076 ± 0.16
x2 = 0.3491 | 1039 ± 0.4 | 1034.73 ± 0.4 | 1030.34 ± 0.41 | 1025.66 ± 0.42 | 1393 ± 2 | 1358 ± 2 | 9.631 ± 0.16 | 4.946 ± 0.12
x2 = 0.4487 | 1017.94 ± 0.46 | 1013.34 ± 0.47 | 1008.79 ± 0.48 | 1004.01 ± 0.49 | 1346 ± 2 | 1311 ± 2 | 6.504 ± 0.11 | 3.42 ± 0.079
x2 = 0.5011 | 1006.8 ± 0.49 | 1002.03 ± 0.5 | 997.36 ± 0.52 | 992.53 ± 0.53 | 1322 ± 2 | 1287 ± 2 | 5.226 ± 0.091 | 2.808 ± 0.064
x2 = 0.5485 | 996.65 ± 0.52 | 991.74 ± 0.54 | 986.94 ± 0.55 | 982.07 ± 0.56 | 1301 ± 2 | 1267 ± 2 | 4.257 ± 0.075 | 2.345 ± 0.052
x2 = 0.6492 | 974.85 ± 0.59 | 969.64 ± 0.61 | 964.5 ± 0.62 | 959.48 ± 0.63 | 1261 ± 2 | 1226 ± 2 | 2.692 ± 0.048 | 1.591 ± 0.032
x2 = 0.7505 | 952.44 ± 0.67 | 946.98 ± 0.68 | 941.47 ± 0.7 | 936.2 ± 0.71 | 1223 ± 2 | 1188 ± 2 | 1.645 ± 0.029 | 1.068 ± 0.02
x2 = 0.8492 | 930.05 ± 0.75 | 924.36 ± 0.76 | 918.52 ± 0.78 | 912.88 ± 0.8 | 1189 ± 2 | 1151 ± 2 | 0.988 ± 0.018 | 0.719 ± 0.013
x2 = 0.9445 | 907.81 ± 0.83 | 901.89 ± 0.84 | 895.89 ± 0.86 | 889.73 ± 0.88 | 1157 ± 2 | 1116 ± 2 | 0.587 ± 0.011 | 0.487 ± 0.009
